{"source": "patent US20220000106A1", "about": "“HERBICIDAL COMPOSITIONS AND RELATED METHODS” (BELCHIM Crop Protection USA LLC, priority 2020, published 2022)", "tested_on": "various established weeds including Carolina False Dandelion, Hop Clover, White Clover, Annual Sedge, and Smooth Crabgrass", "test": "Field study of post-emergence weed control (overall percent weed control of combined weed species) in established Kentucky Tall Fescue", "format": "in vivo", "conditions": "for efficacy of all weeds: eight days after treatment", "description": "Field studies were conducted on a mixed stand of established Kentucky Tall Fescue containing various established weeds including but not limited to Carolina False Dandelion, Hop Clover, White Clover, Annual Sedge, and Smooth Crabgrass in Selma, N.C. The trial location was mowed weekly at a mowing height of three inches. The distribution of weeds was uniform throughout the study.\nIndividual treatment plots were applied on a 1×3 meter squared plot area. The experimental design was a randomized complete block with three replications. The applications were made with a carbon dioxide backpack sprayer equipped with 11003 nozzles with a spray pressure of 40 psi calibrated to deliver approximately 40 gallons per acre spray volume. All applications were applied on a single day. The wind speed was less than 10 mph at time of application.\nData were collected at 2, 4, 8, 13, 23 and 30 days after application of treatments, respectively. Data were collected as an estimate of overall percent weed control (efficacy) of combined weed species taking into consideration necrosis, chlorosis, and stunting of each weed species. The data were analyzed in ARM using the ANOVA and preforming the Duncan's New MRT test at P=0.05 (indicated by “a,” “b,” “c,”, etc.).\nGlufosinate used in this trial was Surmise (2.34 lb/gal.) marketed by Albaugh LLC. Pelargonic Acid used in this trial was Beloukha Garden Herbicide (4.21 lb/gal.) marketed by Belchim Crop Protection USA.\nThe total percent weed control was calculated by comparing the individual treated plots and assessing individual weeds.", "data": [{"smiles": "CP(=O)(O)CCC(N)C(=O)O", "note": "(stereo not shown) [Glufosinate, 2-amino-4-[hydroxy(methyl)phosphoryl]butanoic acid]", "values": [{"measurement": "Percent Control", "setting": "0.5 fluid oz/gal, 2 days after treatment", "value": 0.0, "unit": "b %"}, {"measurement": "Percent Control", "setting": "0.5 fluid oz/gal, 4 days after treatment", "value": 20.0, "unit": "c %"}, {"measurement": "Percent Control", "setting": "0.5 fluid oz/gal, 8 days after treatment", "value": 85.0, "unit": "ab %"}, {"measurement": "Percent Control", "setting": "0.5 fluid oz/gal, 13 days after treatment", "value": 90.0, "unit": "b %"}, {"measurement": "Percent Control", "setting": "0.5 fluid oz/gal, 23 days after treatment", "value": 85.2, "unit": "b %"}, {"measurement": "Percent Control", "setting": "0.5 fluid oz/gal, 30 days after treatment", "value": 83.6, "unit": "b %"}, {"measurement": "Percent Control", "setting": "1.0 fluid oz/gal, 2 days after treatment", "value": 0.0, "unit": "b %"}, {"measurement": "Percent Control", "setting": "1.0 fluid oz/gal, 4 days after treatment", "value": 15.0, "unit": "cd %"}, {"measurement": "Percent Control", "setting": "1.0 fluid oz/gal, 8 days after treatment", "value": 91.0, "unit": "a %"}, {"measurement": "Percent Control", "setting": "1.0 fluid oz/gal, 13 days after treatment", "value": 90.7, "unit": "b %"}, {"measurement": "Percent Control", "setting": "1.0 fluid oz/gal, 23 days after treatment", "value": 90.4, "unit": "b %"}, {"measurement": "Percent Control", "setting": "1.0 fluid oz/gal, 30 days after treatment", "value": 95.0, "unit": "a %"}, {"measurement": "Percent Control", "setting": "2.0 fluid oz/gal, 2 days after treatment", "value": 0.0, "unit": "b %"}, {"measurement": "Percent Control", "setting": "2.0 fluid oz/gal, 4 days after treatment", "value": 15.0, "unit": "cd %"}, {"measurement": "Percent Control", "setting": "2.0 fluid oz/gal, 8 days after treatment", "value": 94.3, "unit": "a %"}, {"measurement": "Percent Control", "setting": "2.0 fluid oz/gal, 13 days after treatment", "value": 98.0, "unit": "a %"}, {"measurement": "Percent Control", "setting": "2.0 fluid oz/gal, 23 days after treatment", "value": 99.1, "unit": "a %"}, {"measurement": "Percent Control", "setting": "2.0 fluid oz/gal, 30 days after treatment", "value": 97.1, "unit": "a %"}, {"measurement": "efficacy of all weeds", "setting": "all glufosinate treatments at all dose rates", "value": "85 to 94", "unit": "%"}, {"measurement": "control of all weeds (efficacy)", "setting": "glufosinate alone, all dose rates, 23 days after treatment", "value": "85 to 99", "unit": "%"}]}, {"smiles": "CCCCCCCCC(=O)O", "note": "[Pelargonic Acid, nonanoic acid]", "values": [{"measurement": "Percent Control", "setting": "3.2 fluid oz/gal, 2 days after treatment", "value": 6.7, "unit": "b %"}, {"measurement": "Percent Control", "setting": "3.2 fluid oz/gal, 4 days after treatment", "value": 20.0, "unit": "c %"}, {"measurement": "Percent Control", "setting": "3.2 fluid oz/gal, 8 days after treatment", "value": 40.0, "unit": "c %"}, {"measurement": "Percent Control", "setting": "3.2 fluid oz/gal, 13 days after treatment", "value": 22.2, "unit": "d %"}, {"measurement": "Percent Control", "setting": "3.2 fluid oz/gal, 23 days after treatment", "value": 20.0, "unit": "d %"}, {"measurement": "Percent Control", "setting": "3.2 fluid oz/gal, 30 days after treatment", "value": 20.0, "unit": "c %"}, {"measurement": "Percent Control", "setting": "6.4 fluid oz/gal, 2 days after treatment", "value": 40.0, "unit": "a %"}, {"measurement": "Percent Control", "setting": "6.4 fluid oz/gal, 2 days after treatment, listed as pelargonic acid", "value": 40, "unit": "%"}, {"measurement": "Percent Control", "setting": "6.4 fluid oz/gal, 4 days after treatment", "value": 50.0, "unit": "b %"}, {"measurement": "Percent Control", "setting": "6.4 fluid oz/gal, 8 days after treatment", "value": 73.3, "unit": "b %"}, {"measurement": "Percent Control", "setting": "6.4 fluid oz/gal, 13 days after treatment", "value": 66.7, "unit": "c %"}, {"measurement": "Percent Control", "setting": "6.4 fluid oz/gal, 23 days after treatment", "value": 40.0, "unit": "c %"}, {"measurement": "Percent Control", "setting": "6.4 fluid oz/gal, 30 days after treatment", "value": 23.2, "unit": "c %"}, {"measurement": "efficacy of all weeds", "setting": "pelargonic acid alone, both dose rates", "value": "40% to 73"}]}]}
